In paper PMC6662706, “Short amylin receptor antagonist peptides improve memory deficits in Alzheimer’s disease mouse model” (Scientific Reports, 2019):
No end group written: not given here.

Key:
[1] = test system: ERK1/2 signaling pathway downstream of AMY3 receptor; experiment: hAmylin-evoked phosphoERK1/2 in HEK-AMY3 cells; format: cell-based; conditions: peptides 10 μM, hAmylin 1 μM, n = 3
From the text: Human amylin is a potent agonist at amylin receptor stimulating cAMP production in cells. In the first in vitro bioassay, we examined ability of R5 and R14 to block the hAmylin-evoked cAMP generation in HEK-AMY3 cells. R11 peptide served as a negative control. […] In a second in vitro assay, we examined whether peptides R5, and R14 could protect human fetal neurons (HFNs) and N2a (mouse neuroblastoma cell line) from Αβ1–42 induced cytotoxicity.
A shorter peptide library was derived from AC253 peptide sequence comprising 12–14 amino acid peptides. […] To determine the activity of these shorter peptides to block AMY3 receptor signaling, cellular cAMP levels (measured using a parameter cyclic AMP assay kit, R&D Systems) and phosphorylation ERK1/2 (Western blot) were measured. We assessed neuroprotective properties of the peptide fragments against Aβ cytotoxicity in vitro using the MTT assay in N2a cell line and human fetal neurons (HFNs), which were prepared from 12- to 15-gestational week fetuses with approval of the Human Ethics Research Board at the University of Alberta as previously reported[17],[19].
Intracellular signaling profiles were determined using in-cell Western blot techniques as previously described ^8. […]

[2] = test system: 5XFAD mice; experiment: Morris Water Maze and probe test, 5XFAD and wild-type mice; format: in vivo, mouse; conditions: for memory task in age-matched wild-type control mice: systemic administration, ip three times a week for 5 weeks
Procedure: The determination of injection amount of R5 (200 µg/kg) was based on achieving equimolar concentrations as the full length peptide, cAC253[21] and prior studies that used pramlintide injections[22],[23]. The normal mouse circulated endogenous amylin level is 0.7 ± 0.4 pmol/L in plasma[32] and based upon our in vitro data (Fig. 1E) unlikely to perturb the function of peptides in vivo at these concentrations.
For in vivo studies, 5XFAD mouse breeding stocks were obtained from the Jackson Laboratory (JAX #006554). Intraperitoneal injection (ip) administration of fragment R5 and cAC253 was carried out in 5XFAD mice and wild-type littermate control mice (both male and female). These mice were equally and randomly distributed into 6 groups (n = 10 for each group), and received either normal saline (NS), cAC253 or R5 fragment (200 µg/kg) i.p. injections 3 times a week starting at 6 months of age for 5 weeks.
The Morris Water Maze (MWM) and probe test were carried out for behavioral testing. The mice were trained for 3 days (4 trials per day) to find a submerged platform (target quadrant, TQ). The trial ended when a mouse found and climbed onto the platform within 120s. Mice were tested with inter-trial interval of 50 min. Memory was evaluated in probe trial, administered on day 4 as the first trial of the day. During probe trial, the platform was removed from the pool. Memory for the platform location was expressed as the percent of time spent in TQ.
For in vivo experiments, intraperitoneal injection (ip) administration of fragment R5 and cAC253 was carried out in 6 month old transgenic 5XFAD mice and wild-type littermate control mice (both male and female) obtained from Dr. David Westaway (University of Alberta). These mice were equally and randomly distributed into 6 groups and 10 mice assigned for each group, Tg-NS, Tg-cAC253, Tg-R5, Wt-NS, Wt-cAC253, Wt-R5. Randomized double blind control experiment was carried out for the whole in vivo experiment, i.e. the individual administering ip injections was blinded to the identity of the drug, and the individual testing behavior was blind to the treatment being administered. […]
The MWM apparatus consisted of 2-m circular blue plastic pool filled with water (24–25°C), which was rendered opaque by the addition of non-toxic white paint. […] The behavior of a mouse was recorded by a video camera connected to a video tracking system (HVS Image 2100, HVS Image, Buckingham, UK).
The pool was surrounded by a white curtain, and a mouse was released facing the wall at points (N, E, S, W) which were chosen semi-randomly. […] Memory was evaluated in probe trial, administered on day 4 as the first trial of the day. […] Memory for the platform location was expressed as the percent of time spent in TQ.

| Substance | effect on increases in phosphoERK1/2 evoked by hAmylin [1] | memory task in age-matched wild-type control mice [2] | Morris Water Maze escape latencies, 5XFAD mice versus normal saline ([2]; 200 µg/kg ip three times a week for 5 weeks from 6 months of age, n = 9 mice per group) | Probe trial, quadrant preference, 5XFAD mice ([2]; 200 µg/kg ip three times a week for 5 weeks, n = 9) |
| --- | --- | --- | --- | --- |
| LGRLSQELHRLQTYPRTNTGSNTY-NH2 (C-terminus assumed) [AC253, reference compound] | reduce increases in phosphoERK1/2 | no alterations in the memory task |  |  |
| SQELHRLQTYPR-NH2 [R5] | reduce increases in phosphoERK1/2 | no alterations in the memory task | marked improvement in escape latencies | preference for the target quadrant |
